Measured values: US8426604B2 (Janssen Pharmaceutica NV, priority 2010, dated 2013)

Legend:
[1] = molecular target: T1, ERR1 (also known as ERR-α or ERR-1) (Homo sapiens, UniProt P11474); assay: TR-FRET assay (disruption of co-activator peptide binding); assay type: biochemical; details: 6His-tagged ERR1LBD, GST-hSRC2 co-activator peptide; average of 3 independent experiments
T1 sequence (P11474 193-421 limits assumed): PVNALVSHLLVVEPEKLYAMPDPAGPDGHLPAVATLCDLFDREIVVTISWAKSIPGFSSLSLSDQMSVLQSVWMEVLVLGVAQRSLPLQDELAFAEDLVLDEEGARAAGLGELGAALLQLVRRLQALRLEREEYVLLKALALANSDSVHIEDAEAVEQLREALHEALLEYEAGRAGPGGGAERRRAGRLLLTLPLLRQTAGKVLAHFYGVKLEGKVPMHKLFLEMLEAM
Method in brief: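 His6-ERR1 LBD (6 nM) with GST-SRC-2 peptide (6 nM), anti-GST Eu cryptate (30 nM) and anti-His XL665 (7.5 nM) in Tris pH 8/KCl/DTT/BSA buffer, equilibrated 4-18 h at 25 °C. Ex 340, em 615/665 nm; hyperbolic dose-response fit, mean of 3 experiments.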

Zucker fa/fa male rats = assay: Zucker fa/fa Rat Model Assay; assay type: in vivo; details: dosed orally once a day for 4 days, blood collected at day 5
Source text: Zucker fa/fa is a monogenic model of frank diabetes due to a mutation on the fa gene truncating the leptin receptor and preventing its interaction with its peptide hormone. This mutation results in a hyperphagic phenotype and the rodent develops obesity, hyperlipidemia, fasting hyperglycemia and insulin resistance. Zucker fa/fa male rats were received at four weeks of age and allowed to acclimate for one week. At five weeks of age the animals were single housed in cages in a temperature-controlled room with 12-hour light/dark cycle. The rats were allowed ad libitum access to water and food and throughout the study were maintained on a Purina 5008 diet. Animals were sorted based primarily on fed insulin levels and circulating triglycerides. Animals were dosed orally once a day in the morning for 4 days. The vehicle used was either 20% HPβCD (Hydroxypropyl Beta Cyclodextrin) or 15% Vitamin E/30% PEG-400 (Polyethylene Glycol 400). Fed insulin and triglycerides were measured using blood collected from the tail vein at day 5. Serum plasma samples were prepared by centrifugation in EDTA (Ethylenediaminetetraacetic acid) containing tubes, transferred into 96 well plates and stored at −80° C.

| SMILES | EC50 [1] [µM] | % Lowering Fed Insulin Levels (Zucker fa/fa male rats) [%] | % Lowering Fed Triglyceride Levels (Zucker fa/fa male rats) [%] |
| --- | --- | --- | --- |
| CN(C1=NC(=O)/C(=C/c2ccc3c(cnn3Cc3ccc(Cl)cc3C(F)(F)F)c2)S1)[C@@H](CO)C(=O)O [Compound 15, 2S-({5-[1-(4-Chloro-2-trifluoromethyl-benzyl)-1H-indazol-5-ylmethylene]-4-oxo-4,5-dihydro-thiazol-2-yl}-methyl-amino)-3-hydroxy-propionic acid] | 0.023 | 40 | 41 |
| CN1CCC(N(C)C2=NC(=O)/C(=C/c3ccc4c(cnn4Cc4ccc(C(F)(F)F)cc4C(F)(F)F)c3)S2)CC1 [Compound 20, 5-[1-(2,4-Bis-trifluoromethyl-benzyl)-1H-indazol-5-ylmethylene]-2-[methyl-(1-methyl-piperidin-4-yl)-amino]-thiazol-4-one] | 0.018 | 40 | 34 |
| CN(C1=NC(=O)/C(=C/c2ccc3c(cnn3Cc3ccc(C(F)(F)F)cc3C(F)(F)F)c2)S1)C1CCN(CC(N)=O)CC1 [Compound 52, 2-(4-{[-5-({1-[2,4-Bis(trifluoromethyl)benzyl]-1H-indazol-5-yl}methylidene)-4-oxo-4,5-dihydro-1,3-thiazol-2-yl](methyl)amino}piperidin-1-yl)acetamide] | 0.013 | 30 | 38 |
